A word on the IC50: it is the midpoint of a concentration-inhibition curve.

human FXa, sequence (P00742 235-488 limits assumed): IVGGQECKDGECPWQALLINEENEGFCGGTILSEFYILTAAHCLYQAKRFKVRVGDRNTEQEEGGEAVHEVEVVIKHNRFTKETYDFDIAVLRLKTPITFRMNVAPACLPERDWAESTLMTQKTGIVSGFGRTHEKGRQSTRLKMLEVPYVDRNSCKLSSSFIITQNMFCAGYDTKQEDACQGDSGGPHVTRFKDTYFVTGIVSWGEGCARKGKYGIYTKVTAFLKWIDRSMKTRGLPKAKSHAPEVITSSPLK
human FXa, sequence (P00742 41-179 partner limits assumed): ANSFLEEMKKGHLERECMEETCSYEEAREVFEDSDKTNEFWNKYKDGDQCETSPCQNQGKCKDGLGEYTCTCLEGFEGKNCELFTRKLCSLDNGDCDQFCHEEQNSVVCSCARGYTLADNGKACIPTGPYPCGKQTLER

This assay has as its target human FXa (Homo sapiens, UniProt P00742). In words: Human activated blood coagulation factor X (FXa) inhibitory action. The format is biochemical. The following applies: concentration inhibiting 50% of the FXa action; substrate S-2765, 37° C., absorbance at 405 nm. How it is done: (1) Human Activated Blood Coagulation Factor X (FXa) Inhibitory Action
Method of experiment: 225 μl of a 0.05 M Tris hydrochloride buffer (pH 8.3) containing 0.145 M sodium chloride and 2 mM calcium chloride, 5 μl of a sample (the test compound is dissolved in dimethylsulfoxide), and 10 μl of human FXa (0.3 unit/ml) were added to a 96-well microplate to react at 37° C. for about 10 minutes, and then 10 μl of a substrate (3 mM, S-2765) was added thereto to react at 37° C. for about 10 minutes. Subsequently, 25 μl of a 50% aqueous acetic acid solution was added to terminate the reaction, and then the change in the absorbance at 405 nm was measured with a spectrophotometer to calculate the concentration inhibiting 50% of the FXa action (IC50).
With `Cc1ncc2n1C(=O)N(N1CCN(C(=O)[C@H](NC(=O)Nc3ccc(Cl)cc3)C(C)(C)C)CC1)C2` [Example 20, N—(4-chlorophenyl)—N′—((1R)-2,2-dimethyl-1-((4-(5-methyl-3-oxo-1H-imidazo[1,5-c]imidazol-2(3H)-yl)-1-piperazinyl)carbonyl)propyl)urea], the IC50 is 18 nM.
Turning to `CCC(O)(CC)C(NC(=O)Nc1ccc(Cl)cc1)C(=O)N1CCN(N2Cc3cnc(C)n3C2=O)CC1` (stereo not shown) [Example 37, N—(4-chlorophenyl)—N ′—(2-ethyl-2-hydroxy-1-((4-(5-methyl-3-oxo-1H-imidazo[1,5-c]imidazol-2(3H)-yl)-1-piperazinyl)carbonyl)butyl)urea], the IC50 is 26 nM. This IC50 and that of the compound before are within 1.5-fold of each other.
Then `CSC(C)(C)[C@@H](NC(=O)Nc1ccc(Cl)cc1)C(=O)N1CCN(N2Cc3cnc(C)n3C2=O)CC1` [Example 40, N—(4-chlorophenyl)—N′—((1S)-2-methyl-1-((4-(5-methyl-3-oxo-1H-imidazo[1,5-c]imidazol-2(3H)-yl)-1-piperazinyl)carbonyl)-2-(methylthio)propyl)urea], with 10 nM; and `COC(C)(C)C(NC(=O)Nc1ccc(Cl)cc1)C(=O)N1CCN(N2Cc3cnc(C)n3C2=O)CC1` (stereo not shown) [Example 74, N-(4-chlorophenyl)-N′-(2-methoxy-2-methyl-1-((4-(5-methyl-3-oxo-1H-imidazo[1,5-c]imidazol-2(3H)-yl)-1-piperazinyl)carbonyl)propyl)urea], with 50 nM.

Source of the values: patent US7820673B2, “Urea derivative, process for producing the same, and use” (Takeda Pharmaceutical Company Limited, priority 2003, dated 2010).
